# Results from US20150352137A1, “THYMIDINE FOR PREVENTING NEURAL TUBE DEFECTS” (priority 2012, published 2015).
# Legend:
# genomic DNA = test: Incorporation of tritiated nucleotide precursors into genomic DNA in embryo culture; set-up: species or system mouse; conditions: embryos cultured E9.5-10.5, mean ± SEM, n = 3
# Protocol: Embryos were explanted at E9.5 and cultured for 24 hours in rat serum as described previously (Cockroft, In: Copp […], editors. Postimplantation Mammalian Embryos: A Practical Approach. Oxford: […] DNA concentration was determined by NanoDrop.
# curly tail embryos = test: Frequency of exencephaly (cranial NTDs) among curly tail embryos after maternal supplementation; type: in vivo, mouse; conditions: maternal i.p. 20 mg/kg each reagent daily E7.5-10.5; controls 6.8%
# Protocol: The closure defects in ct/ct embryos are a mechanical consequence of excessive ventral curvature of the caudal region of the embryo. This, in turn, results from a dorso-ventral growth imbalance caused by a diminished cellular proliferation rate in the hindgut endoderm. In addition to spina bifida, cranial NTDs (exencephaly) also occur at low frequency among curly tail embryos (approximately 5%), but the cellular basis for these defects is not known. […] Any resorptions were recorded. Crown-rump length was measured using an eyepiece graticule. The frequency of exencephaly (cranial NTDs) among genetically predisposed curly tail embryos was also assessed. The frequency of exencephaly was 6.8% among embryos from control litters. There was a trend towards diminished frequency of exencephaly among embryos treated with thymidine and adenine, thymidine and GMP, or thymidine only, compared with controls (3.0%, 2.5% and 2.7% respectively, see FIG. 4).
# curly tail mice = conditions: female, mouse, in vivo
# Protocol: Experimental litters were generated by overnight mating with the day of finding a copulation plug designated embryonic day (E) 0.5. Maternal supplementation was performed daily from E7.5-10.5.
# Treatments were: control (water only), thymidine+adenine, thymidine+hypoxanthine, thymidine+GMP, thymidine only, adenine only (all reagents from Sigma). GMP was used instead of guanine owing to solubility considerations in preparing solutions for injection. Animal studies were carried out under regulations of the Animals (Scientific Procedures) Act 1986 of the UK Government, and in according with guidance issued by the Medical Research Council, UK in Responsibility in the Use of Animals for Medical Research (July 1993).
# Collection of Embryos Litters were dissected from the uterus, at E11.5-13.5, in Dulbecco's Modified Eagle's Medium containing 10% fetal calf serum and assessed for presence of neural tube defects (NTDs) under a light microscope. Any resorptions were recorded. Crown-rump length was measured using an eyepiece graticule.
# In order to evaluate potential effects of treatment on litter size or embryonic viability, the number of embryos in each litter was recorded together with the presence of dead or resorbed embryos.
# [1] = tested on: curly tail (ct/ct) embryos; test: Frequency of spina bifida, tail flexion defects and straight tails in curly tail embryos after maternal supplementation; type: in vivo, mouse; conditions: for frequency of straight-tailed (unaffected) embryos compared with controls: all embryos; for frequency of straight-tailed (unaffected) embryos compared with controls / frequency of spina bifida compared with controls: z-test; for frequency of spina bifida compared with controls: maternal i.p. 20 mg/kg each reagent daily E7.5-10.5, embryos scored E11.5-13.5
# From the text: The curly tail (ct) mouse is considered a useful model for NTDs owing to a number of characteristics that resemble the corresponding defects in humans. These include a multifactorial etiology (with effects of both genetic and environmental factors), location of spina bifida lesions at the lumbosacral level, the presence of elevated alpha-fetoprotein in the amniotic fluid and a female excess among exencephalic embryos. […] The closure defects in ct/ct embryos are a mechanical consequence of excessive ventral curvature of the caudal region of the embryo. This, in turn, results from a dorso-ventral growth imbalance caused by a diminished cellular proliferation rate in the hindgut endoderm. In addition to spina bifida, cranial NTDs (exencephaly) also occur at low frequency among curly tail embryos (approximately 5%), but the cellular basis for these defects is not known. Curly tail mice were maintained as a closed random-bred colony as described in Van […] et al (Anat Embryol 2001 203: 225-237). […] Any resorptions were recorded. Crown-rump length was measured using an eyepiece graticule. Statistical analysis was carried out using SigmaStat (version 3.5; Systat Software Inc). Proportions were compared by z-test. Comparisons of mean values were made by […] or by One Way ANOVA with pairwise analysis by Holm-Sidak test. Embryos removed from pregnant females at E11.5-13.5 were scored for the outcome of low spinal neurulation as: normal (ST, straight tail), tail flexion defect (CT, curled tail), or open spina bifida which was always associated with a tail flexion defect (SB plus CT). Tail flexion defects arise when closure of the neural tube is delayed but does ultimately occur.
# neural tube defects = conditions: cited from earlier work
# ct/ct embryos = conditions: supplementation; cited from earlier work
smiles,measurement,setting,value
Nc1ncnc2nc[nH]c12 [[^3H]-adenine],[^3H] incorporation into genomic DNA,"genomic DNA; 37,000 Bq/ml, 0.036 nmol/ml",40.0 ± 6.6 cpm/μg
same,[^3H] incorporation into genomic DNA,"genomic DNA; 74,000 Bq/ml, 0.07 nmol/ml",82.8 ± 6.7 cpm/μg
"Cc1cn([C@H]2C[C@H](O)[C@@H](CO)O2)c(=O)[nH]c1=O [Thy only, thymidine]",frequency of exencephaly,curly tail embryos,2.7%
same,Mean litter size,curly tail mice,7.4 ± 0.8
same,Resorption per litter,curly tail mice,0.9 ± 0.4
same,frequency of straight-tailed (unaffected) embryos compared with controls,[1]; listed as Thy,significantly higher
same,frequency of straight-tailed (unaffected) embryos compared with controls,[1]; listed as thymidine only,higher frequency
same,"proportion of unaffected, straight tail embryos within litter compared with controls","[1]; litter-by-litter analysis, One Way ANOVA",not statistically significant
same,frequency of spina bifida compared with controls,[1]; 20 mg/kg,trend towards reduced spina bifida frequency
same,frequency of spina bifida compared with controls,"[1]; listed as thymidine alone, 20 mg/kg",trend towards reduced frequency
Cc1cn([C@H]2C[C@H](O)[C@@H](CO)O2)c(=O)[nH]c1=O [[^3H]-thymidine],[^3H] incorporation into genomic DNA,"genomic DNA; 37,000 Bq/ml, 0.07 nmol/ml",898.4 ± 98.0 cpm/μg
"Nc1ncnc2nc[nH]c12 [Ade only, adenine]",Mean litter size,curly tail mice,7.5 ± 0.7
same,Resorption per litter,curly tail mice,0.8 ± 0.3
same,frequency of spina bifida compared with controls,[1],no effect
Nc1nc2ncc(CNc3ccc(C(=O)N[C@@H](CCC(=O)O)C(=O)O)cc3)nc2c(=O)[nH]1 [folic acid],reduction of NTD recurrence risk,"neural tube defects; 5 mg/day, women with a previous affected pregnancy",~70%
same,reduction in the prevalence of NTDs,"neural tube defects; USA, fortification of bread flour",26%
same,NTDs not preventable by maternal treatment,"neural tube defects; human, in vivo",30-50%
same,NTD recurrences prevented,"neural tube defects; randomised clinical trials, administered early in pregnancy",up to 70%
same,prevention of NTDs in ct/ct embryos,ct/ct embryos,not preventable
